The nature of assay [1]: cells. The note with it: Homo sapiens, CRL8155.
Description: Cytotoxicity against human CRL8155 cells after 48 to 72 hrs by Alamar blue assay
Assay [2] concerns HL-60. The assay can be described thus: cells. The settings on record: Homo sapiens.
Description: Cytotoxicity against human HL60 cells after 48 to 72 hrs by Alamar blue assay
Assay [3] addresses T1, Calmodulin-domain protein kinase 1 (Toxoplasma gondii, UniProt Q9BJF5).
T1 sequence (Q9BJF5 whole entry): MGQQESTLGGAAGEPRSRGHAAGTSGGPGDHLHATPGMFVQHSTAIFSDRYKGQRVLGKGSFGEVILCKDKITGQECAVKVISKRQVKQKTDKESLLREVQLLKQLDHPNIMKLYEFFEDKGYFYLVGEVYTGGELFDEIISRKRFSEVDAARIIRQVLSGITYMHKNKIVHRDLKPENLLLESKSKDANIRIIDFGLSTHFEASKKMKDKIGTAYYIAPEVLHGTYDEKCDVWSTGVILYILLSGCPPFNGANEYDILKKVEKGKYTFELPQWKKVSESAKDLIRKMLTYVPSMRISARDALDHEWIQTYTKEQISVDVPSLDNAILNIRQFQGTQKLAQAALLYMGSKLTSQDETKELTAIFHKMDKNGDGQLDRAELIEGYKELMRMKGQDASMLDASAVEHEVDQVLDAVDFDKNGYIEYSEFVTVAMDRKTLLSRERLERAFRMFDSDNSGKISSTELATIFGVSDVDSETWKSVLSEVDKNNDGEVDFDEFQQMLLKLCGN
As to the kind of experiment: Inhibition of Toxoplasma gondii CDPK1.

Assay [4] in a line: Inhibition of Cryptosporidium parvum CDPK1.
The test system of assay [5] is Cryptosporidium parvum. The assay can be described thus: Antiparasitic activity against Cryptosporidium parvum up to 1 uM. Type of assay: functional, organism-based.
In assay [6] the test system is Toxoplasma gondii. As to the kind of experiment: Antiparasitic activity against Toxoplasma gondii up to 1 uM. Type of assay: functional, organism-based.

Calls of active or inactive are those of the source. The rule behind the calls is not given here.

One may read the EC50 as the concentration at which the effect is half-maximal. A higher EC50 goes with a need for much substance. A word on the IC50: it is the concentration at which inhibition is half-maximal. Read a high IC50 as weaker potency in that assay.

For `Nc1nc2ccc(C(=O)c3ccccc3)cc2n1C[C@H]1CCNC1`, the EC50 in assay [1] and in assay [2] was greater than 30000 nM throughout. For the same compound, the IC50 in assay [3] and in assay [4] was 120 nM each time. The result in assay [5] and in assay [6] was inactive.

`O=C(CCC1CCNCC1)Nc1nc2ccc(C(=O)c3ccccc3)cc2[nH]1`: the EC50 in assay [1] and in assay [2] was greater than 30000 nM in each case. For the same compound, the results for the IC50 in assay [3] and in assay [4] were 41 nM and 110 nM, respectively. Moreover, the outcome in assay [5] and in assay [6] was inactive.

In the case of `CN1CCC[C@H]1CCn1c(N)nc2ccc(C(=O)c3ccccc3)cc21`, the concentration for a half-maximal effect (EC50) in assay [1] and in assay [2] was greater than 30000 nM each time. Also, the values for the IC50 in assay [3] and in assay [4] were 68 nM and 71 nM, respectively. Also, the result in assay [5] and in assay [6] was inactive.

In the case of `NCCCCNC(=O)Nc1nc2ccc(C(=O)c3ccccc3)cc2[nH]1`, the EC50 in assay [1] and in assay [2] was greater than 30000 nM in each case. For the same compound, the values for the IC50 in assay [3] and in assay [4] were 140 nM and 150 nM, respectively. The outcome in assay [5] and in assay [6] was inactive.

Consider `NCCCC(=O)Nc1nc2ccc(C(=O)c3ccccc3)cc2[nH]1`, for which the EC50 in assay [1] and in assay [2] was greater than 30000 nM in each case. Further, the IC50 was 69 nM in assay [3] and 91 nM in assay [4]. In addition, the outcome in assay [5] and in assay [6] was inactive.

`COC(=O)Nc1nc2cc(C(=O)c3ccccc3)ccc2[nH]1` [MEBENDAZOLE]: the EC50 in assay [1] and in assay [2] was greater than 30000 nM throughout. Besides, in assay [4], the IC50 is 920 nM. Besides, the outcome in assay [5] and in assay [6] was inactive.

Turning to `COC(=O)Nc1nc2ccc(C(O)c3ccccc3)cc2[nH]1` (stereo not given), the IC50 in assay [3] and in assay [4] was greater than 3000 nM each time.

With `CC(C)Cn1c(N)nc2ccc(C(=O)c3ccccc3)cc21`, the EC50 in assay [1] and in assay [2] was greater than 30000 nM in each case. For the same compound, the values for the IC50 in assay [3] and in assay [4] were 67 nM and 230 nM, respectively. Further, the result in assay [5] and in assay [6] was inactive.

With `O=C(c1ccccc1)c1ccc2nc(NCCO)[nH]c2c1`, the EC50 in assay [1] and in assay [2] was greater than 30000 nM in each case. Further, the IC50 in assay [3] and in assay [4] was greater than 3000 nM in each case. The outcome in assay [5] and in assay [6] was inactive.

In the case of `O=C(NCCO)Nc1nc2cc(C(=O)c3ccccc3)ccc2[nH]1`, the EC50 in assay [1] and in assay [2] was greater than 30000 nM throughout. This compound gave an IC50 in assay [4] of 180 nM. The outcome in assay [5] and in assay [6] was inactive.

For `CN1CCN(CCCn2c(N)nc3ccc(C(=O)c4ccccc4)cc32)CC1`, the EC50 in assay [1] and in assay [2] was greater than 30000 nM each time. The IC50 in assay [3] turned out to be 180 nM; in assay [4], 170 nM. Also, the result in assay [5] and in assay [6] was inactive.

For the compound `CC(C)(C)Cn1c(N)nc2ccc(C(=O)c3ccccc3)cc21`, the EC50 in assay [1] and in assay [2] was greater than 30000 nM in each case. Moreover, the results for the concentration for half-maximal inhibition (IC50) in assay [3] and in assay [4] were 63 nM and 130 nM, respectively. The result in assay [5] and in assay [6] was inactive.

With `Nc1nc2ccc(C(=O)c3ccccc3)cc2n1CCc1ccccn1`, the EC50 in assay [1] and in assay [2] was greater than 30000 nM each time. Besides, the results for the half-inhibitory concentration (IC50) in assay [3] and in assay [4] were 260 nM and 830 nM, respectively. The result in assay [5] and in assay [6] was inactive.

For `O=C(NCCC1CCCNC1)Nc1nc2ccc(C(=O)c3ccccc3)cc2[nH]1` (stereo not given), the EC50 in assay [1] and in assay [2] was greater than 30000 nM each time. Further, the IC50 in assay [3] amounted to 120 nM; in assay [4], 160 nM. The result in assay [5] and in assay [6] was inactive.

Regarding `Nc1nc2ccc(C(=O)c3ccccc3)cc2n1CC[C@H]1CCCN1`, the concentration for a half-maximal effect (EC50) in assay [1] and in assay [2] was greater than 30000 nM in each case. For the same compound, the IC50 in assay [3] came out at 65 nM; in assay [4] it was 95 nM. For the same compound, the outcome in assay [5] and in assay [6] was inactive.

As to `O=C(NCCCCO)Nc1nc2ccc(C(=O)c3ccccc3)cc2[nH]1`, the EC50 in assay [1] and in assay [2] was greater than 30000 nM in each case. Further, the IC50 in assay [3] came to 380 nM; in assay [4], 590 nM. Also, the result in assay [5] and in assay [6] was inactive.

Regarding `N[C@@H](Cc1ccc(O)cc1)C(=O)Nc1nc2ccc(C(=O)c3ccccc3)cc2[nH]1`, the EC50 in assay [1] and in assay [2] was greater than 30000 nM each time. The IC50 in assay [3] came to 520 nM; in assay [4], 1410 nM. The result in assay [5] and in assay [6] was inactive.

`O=C(NCCO)Nc1nc2ccc(C(=O)c3ccccc3)cc2[nH]1` gave an IC50 in assay [3] of 130 nM.

In the case of `CN1CCC(Cn2c(N)nc3ccc(C(=O)c4ccccc4)cc32)CC1`, the EC50 in assay [1] and in assay [2] was greater than 30000 nM throughout. Also, the IC50 in assay [3] worked out at 150 nM; in assay [4], 260 nM. Further, the outcome in assay [5] and in assay [6] was inactive.

Consider `Nc1nc2ccc(C(=O)c3ccccc3)cc2n1CCc1ccc(F)cc1`, for which the EC50 in assay [1] and in assay [2] was greater than 30000 nM each time. Also, the half-maximal inhibitory concentration (IC50) in assay [3] came to 190 nM; in assay [4] it was 950 nM. In addition, the result in assay [5] and in assay [6] was inactive.

Turning to `NCCCCCCC(=O)Nc1nc2ccc(C(=O)c3ccccc3)cc2[nH]1`, the EC50 in assay [1] and in assay [2] was greater than 30000 nM in each case. For the same compound, the 50% inhibitory concentration (IC50) in assay [3] was determined as 22 nM; in assay [4] it was 72 nM. Moreover, the outcome in assay [5] and in assay [6] was inactive.

In the case of `O=C(c1ccccc1)c1ccc2nc(NCCC3CCCNC3)[nH]c2c1` (stereo not given), the concentration for a half-maximal effect (EC50) in assay [1] and in assay [2] was greater than 30000 nM in each case. The IC50 in assay [3] and in assay [4] was greater than 3000 nM throughout. Further, the result in assay [5] and in assay [6] was inactive.

Consider `CN1CCC[C@@H]1Cn1c(N)nc2ccc(C(=O)c3ccccc3)cc21`, for which the EC50 in assay [1] and in assay [2] was greater than 30000 nM in each case. Also, the values for the IC50 in assay [3] and in assay [4] were 660 nM and 790 nM, respectively. Further, the outcome in assay [5] and in assay [6] was inactive.

Regarding `O=C(CCCC1CCNCC1)Nc1nc2ccc(C(=O)c3ccccc3)cc2[nH]1`, the EC50 in assay [1] and in assay [2] was greater than 30000 nM in each case. Also, the IC50 was found to be 18 nM in assay [3] and 82 nM in assay [4]. The result in assay [5] and in assay [6] was inactive.

Consider `Nc1nc2ccc(C(=O)c3ccccc3)cc2n1CCN1CCOCC1`, for which the EC50 in assay [1] and in assay [2] was greater than 30000 nM each time. Besides, the IC50 came to 220 nM in assay [3] and 390 nM in assay [4]. Moreover, the outcome in assay [5] and in assay [6] was inactive.

Turning to `O=C(c1ccccc1)c1ccc2nc(NC(=O)[C@@H]3CCCN3)[nH]c2c1`, the half-maximal effective concentration (EC50) in assay [1] and in assay [2] was greater than 30000 nM throughout. Further, the half-maximal inhibitory concentration (IC50) in assay [3] stood at 160 nM; in assay [4], 130 nM. Moreover, the outcome in assay [5] and in assay [6] was inactive.

`Nc1nc2ccc(C(=O)c3ccccc3)cc2n1C[C@@H]1CCCN1`: the EC50 in assay [1] and in assay [2] was greater than 30000 nM throughout. Further, the results for the IC50 in assay [3] and in assay [4] were 410 nM and 260 nM, respectively. Further, the outcome in assay [5] and in assay [6] was inactive.

With `Nc1nc2ccc(C(=O)c3ccccc3)cc2n1C[C@H]1CCCN1`, the EC50 in assay [1] and in assay [2] was greater than 30000 nM in each case. Also, the values for the IC50 in assay [3] and in assay [4] were 1000 nM and 870 nM, respectively. For the same compound, the outcome in assay [5] and in assay [6] was inactive.

Turning to `N[C@@H](Cc1c[nH]cn1)C(=O)Nc1nc2ccc(C(=O)c3ccccc3)cc2[nH]1`, the EC50 in assay [1] and in assay [2] was greater than 30000 nM in each case. The values for the IC50 in assay [3] and in assay [4] were 140 nM and 320 nM, respectively. The result in assay [5] and in assay [6] was inactive.

Consider `NCCC(=O)Nc1nc2ccc(C(=O)c3ccccc3)cc2[nH]1`, for which the EC50 in assay [1] and in assay [2] was greater than 30000 nM in each case. Moreover, the IC50 in assay [3] is 180 nM; in assay [4] it was 130 nM. In addition, the outcome in assay [5] and in assay [6] was inactive.

For `O=C(CC1CCNCC1)Nc1nc2ccc(C(=O)c3ccccc3)cc2[nH]1`, the EC50 in assay [1] and in assay [2] was greater than 30000 nM in each case. For the same compound, the IC50 in assay [3] worked out at 60 nM; in assay [4], 120 nM. In addition, the result in assay [5] and in assay [6] was inactive.

(Values after ChEMBL document CHEMBL2057208, “Benzoylbenzimidazole-based selective inhibitors targeting Cryptosporidium parvum and Toxoplasma gondii calcium-dependent protein kinase-1” (Bioorg Med Chem Lett, 2012).)
